The values that follow come from US10899738B2 (THE REGENTS OF THE UNIVERSITY OF MICHIGAN, priority 2016, dated 2021).

Read-outs that look alike come from different tables or passages of the source.

In one test the target is menin protein (Homo sapiens (Human), UniProt O00255). The experiment in a line: biochemical. The test is classed as binding. The conditions noted are these: FP competitive binding; menin protein 4 nM, FAM-MM2 probe 2 nM; read-out: Menin Binding Affinity IC50. In a few lines:
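Test compounds displaced FAM-MM2 (2 nM) from 4 nM menin after 30 min equilibration at room temperature in PBS buffer containing bovine γ-globulin, 4% DMSO and Triton X-100. Binding was followed by fluorescence polarization. Competition curves were fitted by nonlinear regression to give IC50 and Ki.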

A further test relates to MV4-11 cells. The experiment in a line: Mechanism of action studies, gene expression measured with qPCR in MV4-11 cells. The test is classed as cell-based. The conditions noted are these: 40 hours of treatment. Here is the method:
(§1) MOLM-13 or MV4-11 cells were seeded in a 6-well plate at a density of 500,000 cells/well in 2 ml of culture medium and treated with either Cpd. No. 210 or Cpd. No. 366 at the concentrations as indicated. About 4 days after the treatments, cells were harvested and the expression of each gene was measured with qPCR.
(§2) MOLM-13 or MV4-11 cells were seeded in a 6-well plate at a density of 500,000-800,000 cells/well in 2 ml of culture medium and treated with either Cpd. No. 366 or Cpd. No. 215 at the concentrations as indicated. About 40 hours after the treatment, cells were harvested and the expression of each gene was measured with qPCR.
For orientation: Real-time PCR tracks product formation cycle by cycle.

Test [1] is described as follows: Cell growth inhibition, CellTiter-Glo Luminescent Cell Viability Assay. It counts as cell-based. In a few lines: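 Cells seeded at 2,000/well with serially diluted compound and cultured 4 days at 37 °C, 5% CO2. Viability read by CellTiter-Glo luminescence; IC50 derived from dose-response.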
In general terms: Cellular ATP, detected with luciferase, serves as a proxy for viable cell number.

A further test relates to MOLM-13 cells. Description: Mechanism of action studies, gene expression measured with qPCR in MOLM-13 cells. It counts as cell-based. The conditions noted are these: 66 hours of treatment. As to the method:
as §1
MOLM-13 cells were seeded in a 6-well plate at a density of 500,000 cells/well in 2 ml of culture medium and treated with either Cpd. No. 366 or Cpd. No. 238 at the concentrations as indicated. About 66 hours after the treatment, cells were harvested and the expression of each gene was measured with qPCR.
as §2

The mark [2] stands for this setting: MOLM-13, 96 h, read-out: Cell Growth Inhibition IC50 (μM) MOLM13, MOLM13 cells, 4 days, CellTiter-Glo.
The mark [3] stands for this setting: MV4-11, 96 h, read-out: Cell Growth Inhibition IC50 (μM) MV4, 11, MV4, 11 cells, 4 days, CellTiter-Glo.
The mark [4] stands for this setting: MOLM-13, 96 h, MOLM13 cells, 4 days, CellTiter-Glo, read-out: Cell Growth Inhibition IC50 (μM) MOLM13.
Setting [5] is: MV4-11, 96 h, MV4, 11 cells, 4 days, CellTiter-Glo, read-out: Cell Growth Inhibition IC50 (μM) MV4, 11.

Chain of menin protein (O00255 whole entry): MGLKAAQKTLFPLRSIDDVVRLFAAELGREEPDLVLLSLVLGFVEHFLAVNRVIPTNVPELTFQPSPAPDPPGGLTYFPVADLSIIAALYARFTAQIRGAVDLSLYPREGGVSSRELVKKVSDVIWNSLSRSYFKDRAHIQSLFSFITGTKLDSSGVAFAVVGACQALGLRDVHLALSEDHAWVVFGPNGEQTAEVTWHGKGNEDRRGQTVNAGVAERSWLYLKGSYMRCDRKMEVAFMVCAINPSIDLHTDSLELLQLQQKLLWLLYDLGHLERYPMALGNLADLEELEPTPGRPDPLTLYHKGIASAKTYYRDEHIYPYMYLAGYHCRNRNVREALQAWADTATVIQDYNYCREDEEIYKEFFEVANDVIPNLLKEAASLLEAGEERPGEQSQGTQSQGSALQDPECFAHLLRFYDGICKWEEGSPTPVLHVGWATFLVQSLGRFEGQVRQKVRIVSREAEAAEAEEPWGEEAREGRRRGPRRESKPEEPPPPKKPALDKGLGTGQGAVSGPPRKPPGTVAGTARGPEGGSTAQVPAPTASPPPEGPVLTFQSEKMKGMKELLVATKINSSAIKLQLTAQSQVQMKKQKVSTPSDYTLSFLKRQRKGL

For `CNC(=O)O[C@H]1CCC[C@@H]1C(C#N)(c1ccccc1)C1CCN(CC2CN(c3ccc(S(=O)(=O)c4ccncc4)cc3)C2)CC1` (mixture of isomers) [Cpd. No. 215, rac-(1S,2R)-2-(cyano(phenyl)(1-((1-(4-(pyridin-4-ylsulfonyl)phenyl)azetidin-3-yl)methyl)piperidin-4-yl)methyl)cyclopentyl methylcarbamate], the results for the IC50 (at menin protein; in test [1] (setting [2]); in test [1] (setting [3])) were 6 nM, 0.415 ± 0.208 µM and 0.173 ± 0.048 µM, respectively. Besides, the HOX7 gene expression result with MV4-11 cells is reported as “Neither Cpd. No. 366 nor Cpd. No. 215 showed an effect”.

For the compound `CNC(=O)O[C@H]1CCC[C@@H]1C(Cn1ccnc1)(c1ccccc1)C1CCN(CC2CN(c3ccc(S(=O)(=O)c4cnn(C)c4)cc3)C2)CC1` (mixture of isomers) [compound 238, rac-(1S,2R)-2-(2-(1H-imidazol-1-yl)-1-(1-((1-(4-((1-methyl-1H-pyrazol-4-yl)sulfonyl)phenyl)azetidin-3-yl)methyl)piperidin-4-yl)-1-phenylethyl)cyclopentyl methylcarbamate], the IC50 at menin protein is 8 nM; in test [1] (MOLM-13, 96 h, read-out: Cell Growth Inhibition IC50 (μM) MOLM13), 0.16 µM; in test [1] (MV4-11, 96 h, read-out: Cell Growth Inhibition IC50 (μM) MV4, 11), 0.027 µM. The ITGAM gene expression result in the test with MOLM-13 cells is recorded as “not effect”. The MEIS1 gene expression result in the test on MOLM-13 cells is “reduced”. Moreover, in the test on MOLM-13 cells (dose dependent), the HOX7 gene expression entry was “reduced”. Moreover, the HOX10 gene expression result with MOLM-13 cells (dose dependent) is recorded as “reduced”.

`CNC(=O)N[C@H]1CCC[C@@H]1C(CN)(c1ccccc1)C1CCN(CC2CN(c3ccc(S(=O)(=O)c4ccccc4)cc3)C2)CC1` (mixture of isomers) [compound 321, rac-1-((1S,2R)-2-(2-amino-1-phenyl-1-(1-((1-(4-(phenylsulfonyl)phenyl)azetidin-3-yl)methyl)piperidin-4-yl)ethyl)cyclopentyl)-3-methylurea]: the figures for the half-maximal inhibitory concentration (IC50) (at menin protein; in test [1] (setting [2]); in test [1] (setting [3])) were 4 nM, 1.25 µM and 0.73 µM, respectively.

In the case of `COC(=O)N[C@H]1CCC[C@@H]1C(C#N)(c1ccccc1)C1CCN(CC2(C)CN(c3ccc(S(=O)(=O)c4cnn(C)c4)cc3)C2)CC1` (mixture of isomers) [compound 398, methyl rac-((1S,2R)-2-(cyano(1-((3-methyl-1-(4-((1-methyl-1H-pyrazol-4-yl)sulfonyl)phenyl)azetidin-3-yl)methyl)piperidin-4-yl)(phenyl)methyl)cyclopentyl) carbamate], the IC50 on menin protein is 167 nM; in test [1] (setting [2]), more than 10 µM; in test [1] (setting [3]), 4.57 µM.

For the compound `CNC(=O)N[C@H]1CCC[C@@H]1C1(C2CCN(CC3CN(c4ccc(S(=O)(=O)C5CC5)cc4)C3)CC2)CN(C)Cc2ccccc21` (mixture of isomers) [compound 283, rac-1-((1S,2R)-2-(4-(1-((1-(4-(cyclopropylsulfonyl)phenyl)azetidin-3-yl)methyl)piperidin-4-yl)-2-methyl-1,2,3,4-tetrahydroisoquinolin-4-yl)cyclopentyl)-3-methylurea], the half-maximal inhibitory concentration (IC50) was determined as 10 nM on menin protein, 0.53 µM in test [1] (setting [2]) and 0.21 µM in test [1] (setting [3]).

Regarding `CCN1Cc2ccccc2C(C2CCCC2)(C2CCN(CC3CN(c4ccc(S(=O)(=O)c5ccncc5C)cc4)C3)CC2)C1` (centres unmarked) [compound 153, 4-cyclopentyl-2-ethyl-4-(1-((1-(4-((3-methylpyridin-4-yl)sulfonyl)phenyl)azetidin-3-yl)methyl)piperidin-4-yl)-1,2,3,4-tetrahydroisoquinoline], the IC50 on menin protein was 7 nM; in test [1] (setting [4]), 0.77 µM; in test [1] (setting [5]), 0.79 µM.

In the case of `CNC(=O)O[C@H]1CCC[C@@H]1C(C#N)(c1ccccc1)C1CCN(CC2CN(c3ccc(S(=O)(=O)c4ccn(C)n4)cc3)C2)CC1` (mixture of isomers) [compound 230, rac-(1S,2R)-2-(cyano(1-((1-(4-((1-methyl-1H-pyrazol-3-yl)sulfonyl)phenyl)azetidin-3-yl)methyl)piperidin-4-yl)(phenyl)methyl) cyclopentyl methylcarbamate], the IC50 on menin protein was 7 nM; in test [1] (setting [2]), 0.25 µM; in test [1] (setting [3]) it was 0.092 µM.

With `CCS(=O)(=O)c1ccc(N2CC(CN3CCC(C4(C5CCCC5)NCCc5ccccc54)CC3)C2)cc1` (centres unmarked) [compound 133, 1-cyclopentyl-1-(1-((1-(4-(ethylsulfonyl)phenyl)azetidin-3-yl)methyl)piperidin-4-yl)-1,2,3,4-tetrahydroisoquinoline], the IC50 stood at 30 nM on menin protein, 2.9 ± 0.8 µM in test [1] (setting [4]) and 1.7 ± 1 µM in test [1] (setting [5]).

For the compound `CC(=O)O[C@H]1CCC[C@@H]1C1(C2CCN(CCCOc3ccc(C#N)cc3)CC2)CN(C)Cc2ccc(F)cc21` (mixture of isomers) [compound 314, rac-(1S,2R)-2-(4-(1-(3-(4-cyanophenoxy)propyl)piperidin-4-yl)-6-fluoro-2-methyl-1,2,3,4-tetrahydroisoquinolin-4-yl)cyclopentyl acetate], the half-inhibitory concentration (IC50) on menin protein is 31 nM; in test [1] (setting [2]), more than 10 µM; in test [1] (setting [3]), 2.97 µM.

For the compound `CC(C)S(=O)(=O)c1ccc(N2CC(CN3CCC(C4(C5CCCC5)NCCc5ccccc54)CC3)C2)cc1` (centres unmarked) [compound 134, 1-cyclopentyl-1-(1-((1-(4-(isopropylsulfonyl)phenyl)azetidin-3-yl)methyl)piperidin-4-yl)-1,2,3,4-tetrahydroisoquinoline], the IC50 at menin protein is 67 nM; in test [1] (setting [4]) it was 3.8 µM; in test [1] (setting [5]), 1.1 µM.

In the case of `CCc1nccn1CC(c1ccccc1)(C1CCN(CC2CN(c3ccc(C#N)cc3)C2)CC1)[C@H]1CCC[C@@H]1OC(=O)NC` (mixture of isomers) [compound 408, rac-(1S,2R)-2-(1-(1-((1-(4-cyanophenyl)azetidin-3-yl)methyl)piperidin-4-yl)-2-(2-ethyl-1H-imidazol-1-yl)-1-phenylethyl)cyclopentyl methylcarbamate], the IC50 at menin protein was 3 nM; in test [1] (setting [2]) it was 0.017 ± 0.007 µM; in test [1] (setting [3]) it was 0.005 ± 0.002 µM.

Consider `CCN1Cc2ccccc2C(C2CCCC2)(C2CCN(CC3CN(c4ccc(S(=O)(=O)c5ccnc6cnccc56)cc4)C3)CC2)C1` (centres unmarked) [compound 158, 4-((4-(3-((4-(4-cyclopentyl-2-ethyl-1,2,3,4-tetrahydroisoquinolin-4-yl)piperidin-1-yl)methyl)azetidin-1-yl)phenyl)sulfonyl)-1,7-naphthyridine], for which the 50% inhibitory concentration (IC50) at menin protein was determined as 8 nM; in test [1] (setting [4]), 1.56 µM; in test [1] (setting [5]), 0.8 µM.

Consider `CC(=O)O[C@H]1CCC[C@@H]1C1(C2CCN(CC3CN(c4ccc(S(=O)(=O)c5ccncc5)cc4)C3)CC2)CN(C)Cc2ccccc21` (mixture of isomers) [compound 206, rac-(1S,2R)-2-(2-methyl-4-(1-((1-(4-(pyridin-4-ylsulfonyl)phenyl)azetidin-3-yl)methyl)piperidin-4-yl)-1,2,3,4-tetrahydroisoquinolin-4-yl)cyclopentyl acetate], for which the half-inhibitory concentration (IC50) at menin protein turned out to be 3 nM; in test [1] (setting [2]), 0.411 ± 0.3 µM; in test [1] (setting [3]) it was 0.119 ± 0.048 µM.

In the case of `COC(=O)N[C@H]1CCC[C@@H]1C(C#N)(c1ccccc1)C1CCN(CC2CN(c3ccc(S(=O)(=O)c4ccc(C(=O)O)cc4)cc3)C2)CC1` (mixture of isomers) [compound 351, rac-4-((4-(3-((4-(cyano((1R,2S)-2-((methoxycarbonyl)amino)cyclopentyl)(phenyl)methyl)piperidin-1-yl)methyl)azetidin-1-yl)phenyl)sulfonyl)benzoic acid], the concentration for half-maximal inhibition (IC50) is 15 nM on menin protein, 16.1 µM in test [1] (setting [2]) and 3.02 µM in test [1] (setting [3]).

Turning to `CNC(=O)O[C@H]1CCC[C@@H]1C(Cn1ccnc1)(c1ccccc1)C1CCN(CC2CN(c3ccc(Cl)cc3)C2)CC1` (mixture of isomers) [compound 407, rac-(1S,2R)-2-(1-(1-((1-(4-chlorophenyl)azetidin-3-yl)methyl)piperidin-4-yl)-2-(1H-imidazol-1-yl)-1-phenylethyl)cyclopentyl methylcarbamate], the IC50 at menin protein was determined as 5 nM; in test [1] (setting [2]) it was 0.69 ± 0.089 µM; in test [1] (setting [3]), 0.41 ± 0.28 µM.

By IC50 is commonly meant the concentration that inhibits the measured activity by half.
